According to the CheMixHub viscosity set:

Test: xn = mol fraction of the nth substance listed

COc1ccccc1O + c1ccncc1
303.15 K, 101 kPa
Conditions | viscosity [mPa·s]
x2 = 0.1 | 5.04
x2 = 0.2 | 5.38
x2 = 0.25 | 5.4
x2 = 0.27 | 5.42
x2 = 0.3 | 5.4
x2 = 0.4 | 4.94
x2 = 0.5 | 4
x2 = 0.6 | 3.3
x2 = 0.7 | 2.07
x2 = 0.8 | 1.48
x2 = 0.9 | 1.09

Brc1ccccc1 + COC(C)=O
viscosity [mPa·s], 101 kPa
Conditions | 298.15 K | 308.15 K
x2 = 0.0439 | 0.978 | 0.915
x2 = 0.1485 | 0.848 | 0.811
x2 = 0.2482 | 0.747 | 0.725
x2 = 0.3503 | 0.662 | 0.649
x2 = 0.4378 | 0.602 | 0.592
x2 = 0.4901 | 0.57 | 0.561
x2 = 0.5493 | 0.538 | 0.529
x2 = 0.6489 | 0.492 | 0.48
x2 = 0.7491 | 0.453 | 0.437
x2 = 0.8491 | 0.421 | 0.399
x2 = 0.9433 | 0.397 | 0.368

Cc1ccc[n+](CCCO)c1.[Cl-] + O
viscosity [mPa·s], 100 kPa
Conditions | x1 = 0.001832 | x1 = 0.002695 | x1 = 0.003588 | x1 = 0.005369 | x1 = 0.007151 | x1 = 0.008924
293.15 K | 1.065 | 1.09 | 1.114 | 1.16 | 1.204 | 1.246
298.15 K | 0.943 | 0.965 | 0.986 | 1.025 | 1.063 | 1.1
303.15 K | 0.841 | 0.86 | 0.877 | 0.912 | 0.945 | 0.976
308.15 K | 0.757 | 0.773 | 0.789 | 0.819 | 0.848 | 0.876
313.15 K | 0.682 | 0.696 | 0.709 | 0.735 | 0.76 | 0.784

C1COCCO1 + CCCO
viscosity [mPa·s]
Conditions | 298.15 K | 303.15 K | 308.15 K | 313.15 K
101 kPa, x1 = 0.4 | 1.131 | – | – | –
101.3 kPa, x1 = 0.0923 | 1.609 | 1.42 | 1.289 | 1.179
101.3 kPa, x1 = 0.122 | 1.499 | 1.332 | 1.209 | 1.1
101.3 kPa, x1 = 0.2236 | 1.284 | 1.15 | 1.057 | 0.9732
101.3 kPa, x1 = 0.2793 | 1.223 | 1.084 | 0.9926 | 0.9135
101.3 kPa, x1 = 0.3323 | 1.158 | 1.065 | 0.9698 | 0.8894
101.3 kPa, x1 = 0.3964 | 1.106 | 1.014 | 0.9229 | 0.8503
101.3 kPa, x1 = 0.4347 | 1.057 | 0.9719 | 0.8966 | 0.8243
101.3 kPa, x1 = 0.5294 | 1.04 | 0.9553 | 0.8788 | 0.8135
101.3 kPa, x1 = 0.5833 | 1.028 | 0.949 | 0.8777 | 0.8149
101.3 kPa, x1 = 0.6365 | 1.028 | 0.9503 | 0.8792 | 0.8185
101.3 kPa, x1 = 0.6538 | 1.033 | 0.9567 | 0.8791 | 0.8196
101.3 kPa, x1 = 0.7379 | 1.051 | 0.9745 | 0.9054 | 0.8374
101.3 kPa, x1 = 0.8132 | 1.085 | 0.9921 | 0.9184 | 0.8578
101.3 kPa, x1 = 0.8989 | 1.117 | 1.028 | 0.9533 | 0.887

FB(F)F + COc1ccccc1
viscosity [mPa·s], 101 kPa
Conditions | 293.15 K | 298.15 K | 303.15 K
x1 = 0.00791 | 1.08 | 1 | 0.93
x1 = 0.08794 | 1.18 | 1.08 | 0.99
x1 = 0.1573 | 1.27 | 1.16 | 1.06
x1 = 0.2443 | 1.62 | 1.46 | 1.35
x1 = 0.3211 | 2.23 | 2.02 | 1.81
x1 = 0.3634 | 2.66 | 2.39 | 2.13
x1 = 0.3926 | 3.04 | 2.69 | 2.4
x1 = 0.419 | 3.46 | 3.04 | 2.67
x1 = 0.4457 | 3.95 | 3.45 | 3.04
x1 = 0.4544 | 4.19 | 3.62 | 3.15
x1 = 0.4895 | 4.98 | 4.31 | 3.73

Brc1ccccc1 + ClC(Cl)(Cl)Cl
Conditions | viscosity [mPa·s]
298 K, 101.3 kPa, x2 = 0.1709 | 1.035
298 K, 101.3 kPa, x2 = 0.3202 | 1.011
298 K, 101.3 kPa, x2 = 0.5187 | 0.971
298 K, 101.3 kPa, x2 = 0.6674 | 0.942
298 K, 101.3 kPa, x2 = 0.8522 | 0.915
303.15 K, 101 kPa, x1 = 0.092 | 0.727
303.15 K, 101 kPa, x1 = 0.187 | 0.653
303.15 K, 101 kPa, x1 = 0.283 | 0.624
303.15 K, 101 kPa, x1 = 0.38 | 0.595
303.15 K, 101 kPa, x1 = 0.479 | 0.619
303.15 K, 101 kPa, x1 = 0.58 | 0.656
303.15 K, 101 kPa, x1 = 0.682 | 0.7
303.15 K, 101 kPa, x1 = 0.787 | 0.778
303.15 K, 101 kPa, x1 = 0.892 | 0.881
318 K, 101.3 kPa, x2 = 0.1581 | 0.8313
318 K, 101.3 kPa, x2 = 0.3169 | 0.8147
318 K, 101.3 kPa, x2 = 0.5212 | 0.7898
318 K, 101.3 kPa, x2 = 0.6657 | 0.7758
318 K, 101.3 kPa, x2 = 0.8618 | 0.76

CC(F)(F)Cl + FC(F)Cl
Conditions | viscosity [mPa·s]
293.15 K, 101 kPa, x2 = 0.115 | 0.2343
293.15 K, 101 kPa, x2 = 0.331 | 0.2197
293.15 K, 101 kPa, x2 = 0.54 | 0.2009
293.15 K, 101 kPa, x2 = 0.635 | 0.2028
293.15 K, 101 kPa, x2 = 0.913 | 0.177
293.25 K, 101 kPa, x2 = 0.438 | 0.2153
293.35 K, 101 kPa, x2 = 0.822 | 0.189
293.73 K, 101.13 kPa, x2 = 0.526 | 0.195
312.35 K, 101 kPa, x2 = 0.731 | 0.1511
312.55 K, 101 kPa, x2 = 0.115 | 0.1951
312.75 K, 101 kPa, x2 = 0.913 | 0.1394
312.85 K, 101 kPa, x2 = 0.635 | 0.1609
312.95 K, 101 kPa, x2 = 0.331 | 0.1754
312.95 K, 101 kPa, x2 = 0.54 | 0.1615
313.15 K, 101 kPa, x2 = 0.822 | 0.1495
313.25 K, 101 kPa, x2 = 0.438 | 0.1749

Nc1cccc(Cl)c1Cl + COCCO
313.15 K, 101 kPa
Conditions | viscosity [mPa·s]
x1 = 0.08697 | 1.48
x1 = 0.1819 | 1.74
x1 = 0.2858 | 2.04
x1 = 0.4001 | 2.33
x1 = 0.5264 | 2.63
x1 = 0.6667 | 2.96
x1 = 0.8236 | 3.25

CCCC#N + CC(C)CO
viscosity [mPa·s], 101.33 kPa
Conditions | x2 = 0.0997 | x2 = 0.2 | x2 = 0.2986 | x2 = 0.3982 | x2 = 0.4962 | x2 = 0.5918 | x2 = 0.7022 | x2 = 0.8004 | x2 = 0.8991
298.15 K | 0.582 | 0.626 | 0.69 | 0.778 | 0.895 | 1.051 | 1.315 | 1.672 | 2.273
308.15 K | 0.516 | 0.551 | 0.6 | 0.667 | 0.756 | 0.874 | 1.069 | 1.323 | 1.742
318.15 K | 0.462 | 0.489 | 0.528 | 0.58 | 0.648 | 0.737 | 0.881 | 1.066 | 1.363
